Reference: patent publication US20220112187A1, “PYRAZOLOPYRIDINE AMINE COMPOUNDS FOR THE TREATMENT OF AUTOIMMUNE DISEASE” (Hoffmann-La Roche Inc., priority 2018, published 2022)

Each compound was assayed against T1, human TLR7 (Homo sapiens, UniProt Q9NYK1) (assay: HEK293-Blue-hTLR-7 cells assay (SEAP reporter, R848 stimulation)). Conditions: HEK293-Blue-hTLR7 cells, R848 ligand, 20 hrs incubation.
T1 sequence (Q9NYK1 27-1049): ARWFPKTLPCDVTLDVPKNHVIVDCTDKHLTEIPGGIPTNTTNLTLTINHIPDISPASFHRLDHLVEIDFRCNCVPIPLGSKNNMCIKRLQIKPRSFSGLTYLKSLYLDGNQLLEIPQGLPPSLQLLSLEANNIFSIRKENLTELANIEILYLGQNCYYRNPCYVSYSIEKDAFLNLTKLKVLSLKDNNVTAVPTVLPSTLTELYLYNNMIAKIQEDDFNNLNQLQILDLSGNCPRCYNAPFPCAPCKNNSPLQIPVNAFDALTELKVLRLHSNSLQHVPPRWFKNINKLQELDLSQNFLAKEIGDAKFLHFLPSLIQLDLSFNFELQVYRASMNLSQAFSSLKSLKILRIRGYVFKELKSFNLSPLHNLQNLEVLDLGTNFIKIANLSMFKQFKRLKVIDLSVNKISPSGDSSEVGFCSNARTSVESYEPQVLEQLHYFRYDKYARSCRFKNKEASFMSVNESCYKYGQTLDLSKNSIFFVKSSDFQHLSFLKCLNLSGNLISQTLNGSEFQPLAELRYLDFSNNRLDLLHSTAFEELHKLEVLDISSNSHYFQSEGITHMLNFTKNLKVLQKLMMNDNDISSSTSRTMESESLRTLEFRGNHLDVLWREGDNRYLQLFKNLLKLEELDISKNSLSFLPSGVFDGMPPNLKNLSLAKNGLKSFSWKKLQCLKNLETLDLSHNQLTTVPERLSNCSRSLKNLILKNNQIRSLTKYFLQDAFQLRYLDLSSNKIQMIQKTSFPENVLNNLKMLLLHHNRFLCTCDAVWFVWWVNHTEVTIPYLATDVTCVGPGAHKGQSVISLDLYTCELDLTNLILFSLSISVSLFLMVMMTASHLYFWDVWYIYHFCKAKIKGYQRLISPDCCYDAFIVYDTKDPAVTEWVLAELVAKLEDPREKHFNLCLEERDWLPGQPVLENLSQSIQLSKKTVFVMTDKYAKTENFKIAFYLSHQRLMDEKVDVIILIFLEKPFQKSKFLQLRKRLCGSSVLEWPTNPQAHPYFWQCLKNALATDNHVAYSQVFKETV
Type: cell-based
From the text: A stable HEK293-Blue-hTLR-7 cell line was purchased from InvivoGen (Cat. #: hkb-htlr7, San Diego, Calif., USA). These cells were originally designed for studying the stimulation of human TLR7 by monitoring the activation of NF-κB. A SEAP (secreted embryonic alkaline phosphatase) reporter gene was placed under the control of the IFN-β minimal promoter fused to five NF-κB and AP-1-binding sites. The SEAP was induced by activating NF-κB and AP-1 via stimulating HEK-Blue hTLR7 cells with TLR7 ligands. Therefore the reporter expression was declined by TLR7 antagonist under the stimulation of a ligand, such as R848 (Resiquimod), for incubation of 20 hrs. The cell culture supernatant SEAP reporter activity was determined using QUANTI-Blue™ kit (Cat. #: rep-qb1, Invivogen, San Diego, Ca, USA) at a wavelength of 640 nm, a detection medium that turns purple or blue in the presence of alkaline phosphatase.
HEK293-Blue-hTLR7 cells were incubated at a density of 250,000˜450,000 cells/mL in a volume of 170 μL in a 96-well plate in Dulbecco's Modified Eagle's medium (DMEM) containing 4.5 g/L glucose, 50 U/mL penicillin, […], […], 2 mM L-glutamine, 10% (v/v) heat-inactivated fetal bovine serum with addition of 20 μL test compound in a serial dilution in the presence of final DMSO at 1% and 10 μL of 20 uM R848 in above DMEM, perform incubation under 37° C. in a CO2 incubator for 20 hrs. Then 20 μL of the supernatant from each well was incubated with 180 μL Quanti-blue substrate solution at 37° C. for 2 hrs and the absorbance was read at 620˜655 nm using a spectrophotometer. The signalling pathway that TLR7 activation leads to downstream NF-κB activation has been widely accepted, and therefore similar reporter assay was modified for evaluating TLR7 antagonist.

Compound	IC50 [µM]
C[C@@H]1CN(c2ccc(C#N)n3nccc23)C[C@H](CN2CC3CNCC3C2)O1 (stereo partly drawn) [Example 22, 4-[(2S,6R)-2-(2,3,3a,4,6,6a-hexahydro-1H-pyrrolo[3,4-c]pyrrol-5-ylmethyl)-6-methyl-morpholin-4-yl]pyrazolo[1,5-a]pyridine-7-carbonitrile]	0.1
C[C@@H]1CN(c2ccc(C#N)n3nccc23)C[C@H](CN2CCCC3NCCCC32)O1 (stereo partly drawn) [Example 64, 4-[(2S,6R)-2-(3,4,4a,5,6,7,8,8a-octahydro-2H-1,5-naphthyridin-1-ylmethyl)-6-methyl-morpholin-4-yl]pyrazolo[1,5-a]pyridine-7-carbonitrile]	0.25
CC1CNCCN1C[C@H]1CN(c2ccc(C#N)n3nccc23)C[C@@H](C)O1 (single isomer, unassigned) [Example 50B]	0.14
C[C@@H]1CN(c2ccc(C#N)n3nccc23)C[C@H](CN2CC[C@@H]3CNCC32)O1 (stereo partly drawn) [Example 62, 4-[(2R,6S)-2-methyl-6-[[cis-(3aR,6aR)-3,3a,4,5,6,6a-hexahydro-2H-pyrrolo[3,4-b]pyrrol-1-yl]methyl]morpholin-4-yl]pyrazolo[1,5-a]pyridine-7-carbonitrile]	0.71
C[C@@H]1CN(c2ccc(C#N)n3nccc23)C[C@H](CN2CCC(N3CCNCC3)CC2)O1 [Example 39, 4-[(2R,6S)-2-methyl-6-[(4-piperazin-1-yl-1-piperidyl)methyl]morpholin-4-yl]pyrazolo[1,5-a]pyridine-7-carbonitrile]	0.2
C[C@@H]1CN(c2ccc(C#N)n3nccc23)C[C@H](CN2CC3CCC(C2)C3N)O1 (stereo partly drawn) [Example 36, 4-[(2S,6R)-2-[(8-amino-3-azabicyclo[3.2.1]octan-3-yl)methyl]-6-methyl-morpholin-4-yl]pyrazolo[1,5-a]pyridine-7-carbonitrile]	0.038
C[C@@H]1CN(c2ccc(C#N)n3nccc23)C[C@H](CN2CCC(N)CC2)O1 [Example 17, 4-[(2S,6R)-2-[(4-amino-1-piperidyl)methyl]-6-methyl-morpholin-4-yl]pyrazolo[1,5-a]pyridine-7-carbonitrile]	0.089
C[C@@H]1CN(c2ccc(C#N)n3nccc23)C[C@H](CN2CCN[C@H](c3ccccc3)C2)O1 [Example 38, 4-[(2R,6S)-2-methyl-6-[[(3R)-3-phenylpiperazin-1-yl]methyl]morpholin-4-yl]pyrazolo[1,5-a]pyridine-7-carbonitrile]	0.12
C[C@@H]1CN(c2ccc(C#N)n3nccc23)C[C@H](CN2CCN(C)CC2)O1 [Example 15, 4-[(2R,6S)-2-methyl-6-[(4-methylpiperazin-1-yl)methyl]morpholin-4-yl]pyrazolo[1,5-a]pyridine-7-carbonitrile]	0.077
C[C@@H]1CN(c2ccc(C#N)n3nccc23)C[C@H](CN2CCC(N3CCCCCC3)CC2)O1 [Example 4, 4-[(2S,6R)-2-[[4-(azepan-1-yl)-1-piperidyl]methyl]-6-methyl-morpholin-4-yl]pyrazolo[1,5-a]pyridine-7-carbonitrile]	0.18
C[C@@H]1CN(c2ccc(C#N)n3nccc23)C[C@H](CN2CC3CCCNC3C2)O1 (stereo partly drawn) [Example 45, 4-[(2S,6R)-2-(1,2,3,4,4a,5,7,7a-octahydropyrrolo[3,4-b]pyridin-6-ylmethyl)-6-methyl-morpholin-4-yl]pyrazolo[1,5-a]pyridine-7-carbonitrile]	0.25

Next, values leading:

IC50 [µM]	Compound
0.13	C[C@@H]1CN(c2ccc(C#N)n3nccc23)C[C@H](CN2CCC3(CCCNC3)CC2)O1 [Example 27, 4-[(2S,6R)-2-(2,9-diazaspiro[5.5]undecan-9-ylmethyl)-6-methyl-morpholin-4-yl]pyrazolo[1,5-a]pyridine-7-carbonitrile]
0.2	C[C@@H]1CN(c2ccc(C#N)n3nccc23)C[C@H](CN2CCC3(CCNCC3)C2)O1 [Example 18, 4-[(2S,6R)-2-(2,8-diazaspiro[4.5]decan-2-ylmethyl)-6-methyl-morpholin-4-yl]pyrazolo[1,5-a]pyridine-7-carbonitrile]
0.3	C[C@@H]1CN(c2ccc(C#N)n3nccc23)C[C@H](CN2CCC3(CCN3)CC2)O1 [Example 48, 4-[(2S,6R)-2-(1,7-diazaspiro[3.5]nonan-7-ylmethyl)-6-methyl-morpholin-4-yl]pyrazolo[1,5-a]pyridine-7-carbonitrile]
0.65	C[C@@H]1CN(c2ccc(C#N)n3nccc23)C[C@H](CN2CC3(CCNC3)CC2=O)O1 (stereo partly drawn) [Example 20, 4-[(2R,6R)-2-methyl-6-[(3-oxo-2,7-diazaspiro[4.4]nonan-2-yl)methyl]morpholin-4-yl]pyrazolo[1,5-a]pyridine-7-carbonitrile]
0.24	C[C@@H]1CN(c2ccc(C#N)n3nccc23)C[C@H](CN2CCCC3(CCNC3)C2)O1 (stereo partly drawn) [Example 44, 4-[(2S,6R)-2-(2,7-diazaspiro[4.5]decan-7-ylmethyl)-6-methyl-morpholin-4-yl]pyrazolo[1,5-a]pyridine-7-carbonitrile]
0.18	C[C@@H]1CN(c2ccc(C#N)n3nccc23)C[C@H](CN2CCCC3(CCCNC3)C2)O1 (stereo partly drawn) [Example 23, 4-[(2S,6R)-2-(2,8-diazaspiro[5.5]undecan-2-ylmethyl)-6-methyl-morpholin-4-yl]pyrazolo[1,5-a]pyridine-7-carbonitrile]
0.23	C[C@@H]1CN(c2ccc(C#N)n3ncc(F)c23)C[C@H](CN2CCCC3(CCNC3)C2)O1 (stereo partly drawn) [Example 68, 3-fluoro-4-[(2S,6R)-2-(2,7-diazaspiro[4.5]decan-7-ylmethyl)-6-methyl-morpholin-4-yl]pyrazolo[1,5-a]pyridine-7-carbonitrile]
0.13	C[C@@H]1CN(c2ccc(C#N)n3ncc(F)c23)C[C@H](CN2CCC3(CCCNC3)C2)O1 (stereo partly drawn) [Example 69, 3-fluoro-4-[(2S,6R)-2-(2,9-diazaspiro[4.5]decan-2-ylmethyl)-6-methyl-morpholin-4-yl]pyrazolo[1,5-a]pyridine-7-carbonitrile]
0.1	C[C@@H]1CN(c2ccc(C#N)n3nccc23)C[C@H](CN2CC3(CCNCC3)C2)O1 [Example 24, 4-[(2S,6R)-2-(2,7-diazaspiro[3.5]nonan-2-ylmethyl)-6-methyl-morpholin-4-yl]pyrazolo[1,5-a]pyridine-7-carbonitrile]
0.076	C[C@@H]1CN(c2ccc(C#N)n3nccc23)C[C@H](CN2CCC(C)(N)CC2)O1 [Example 29, 4-[(2S,6R)-2-[(4-amino-4-methyl-1-piperidyl)methyl]-6-methyl-morpholin-4-yl]pyrazolo[1,5-a]pyridine-7-carbonitrile]
0.28	C[C@@H]1CN(c2ccc(C#N)n3ncc(F)c23)C[C@H](CN2CCCC3(CCNCC3)C2)O1 [Example 67, 4-[(2S,6R)-2-(2,9-diazaspiro[5.5]undecan-2-ylmethyl)-6-methyl-morpholin-4-yl]-3-fluoro-pyrazolo[1,5-a]pyridine-7-carbonitrile]
0.54	C[C@@H]1CN(c2ccc(C#N)n3nccc23)C[C@H](CN2CCC23CNC3)O1 [Example 55, 4-[(2S,6R)-2-(1,6-diazaspiro[3.3]heptan-1-ylmethyl)-6-methyl-morpholin-4-yl]pyrazolo[1,5-a]pyridine-7-carbonitrile]
0.92	C[C@@H]1CN(c2ccc(C#N)n3nccc23)C[C@H](CN2CCC3(CN(C)CCO3)C2)O1 (stereo partly drawn) [Example 76, 4-[(2R,6S)-2-methyl-6-[(9-methyl-6-oxa-2,9-diazaspiro[4.5]decan-2-yl)methyl]morpholin-4-yl]pyrazolo[1,5-a]pyridine-7-carbonitrile]
